Measurements as given in US20220370453A1 (Storm Therapeutics Ltd, priority 2019, published 2022).
pIC50: −log10 of the molar value.

Key:
BCDIN3D [1] = biological target: T1, BCDIN3D (Homo sapiens, UniProt Q7Z5W3); assay: BCDIN3D IC50 RFMS (RapidFire) assay with mini-helix; type: biochemical; details: mini-helix substrate 0.2 μM, SAM 6 μM, 25 nM enzyme
T1 sequence (Q7Z5W3 1-292): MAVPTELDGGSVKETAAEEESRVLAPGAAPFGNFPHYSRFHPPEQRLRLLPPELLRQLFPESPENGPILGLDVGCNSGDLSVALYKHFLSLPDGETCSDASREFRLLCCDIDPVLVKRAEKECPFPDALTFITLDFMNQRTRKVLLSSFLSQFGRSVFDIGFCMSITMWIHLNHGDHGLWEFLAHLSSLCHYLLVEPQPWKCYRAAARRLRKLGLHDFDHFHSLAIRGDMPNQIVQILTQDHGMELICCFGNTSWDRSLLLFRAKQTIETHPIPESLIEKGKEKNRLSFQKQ
Outline: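 SAH formation was measured by RapidFire mass spectrometry with D4- and 13C10-SAH internal standards after TCA quench. Substrates 6 μM SAM and 0.2 μM mini-helix reacted 1 h at 37 °C with 25 nM enzyme, which had been preincubated 10 min with compound (1% DMSO) in Tris pH 8.0 buffer with DTT, EDTA, BSA.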

BCDIN3D [2] = biological target: T1, BCDIN3D; assay: BCDIN3D InCellPulse thermal stability assay in transfected A549 cells; type: cell-based; details: transiently transfected A549 cells, heat shock 58° C. 15 min
Outline: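 Thermal stabilisation read-out: after a 15 min 58 °C heat shock, ePL-tagged BCDIN3D in transiently transfected A549 cells (1500/well) was quantified by enzyme-fragment complementation luminescence. Compounds were pre-incubated with cells 1 h at 37 °C, 0.6% DMSO final.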

CCC(C)(C)Nc1nc(NC[C@H](N)c2ccccc2)nc2c1cnn2C [Compound 4.101, N6-[(2R)-2-amino-2-phenyl-ethyl]-N4-(1,1-dimethylpropyl)-1-methyl-pyrazolo[3,4-d]pyrimidine-4,6-diamine]
pIC50 (BCDIN3D [1]): 6.33
pIC50 (BCDIN3D [2]): 6.48

C[C@H](Nc1nc(NC[C@H](N)c2ccccc2)nc2c1cnn2C)C1CC1 [Compound 4.102, N6-[(2R)-2-amino-2-phenyl-ethyl]-N4-[(1S)-1-cyclopropylethyl]-1-methyl-pyrazolo[3,4-d]pyrimidine-4,6-diamine]
pIC50 (BCDIN3D [1]): 5.36
pIC50 (BCDIN3D [2]): 5.58

CC(C)CNc1nc(NC[C@H](N)c2ccccc2)nc2c1cnn2C [Compound 4.103, N6-[(2R)-2-amino-2-phenyl-ethyl]-N4-isobutyl-1-methyl-pyrazolo[3,4-d]pyrimidine-4,6-diamine]
pIC50 (BCDIN3D [1]): 6.49
pIC50 (BCDIN3D [2]): 6.32

Cn1ncc2c(NCC3CC34CCC4)nc(NC[C@H](N)c3ccccc3)nc21 (stereo partly drawn) [Compound 4.104, N6-[(2R)-2-amino-2-phenyl-ethyl]-1-methyl-N4-(spiro[2.3]hexan-2-ylmethyl)pyrazolo[3,4-d]pyrimidine-4,6-diamine]
pIC50 (BCDIN3D [1]): 7.55
pIC50 (BCDIN3D [2]): 7.25

Cn1ncc2c(NCC3CCC3)nc(NC[C@H](N)c3ccccc3)nc21 [Compound 4.105, N6-[(2R)-2-amino-2-phenyl-ethyl]-N4-(cyclobutylmethyl)-1-methyl-pyrazolo[3,4-d]pyrimidine-4,6-diamine]
pIC50 (BCDIN3D [1]): 7.13
pIC50 (BCDIN3D [2]): 6.84

Cn1ncc2c(NCC3CCC3(F)F)nc(NC[C@H](N)c3ccccc3)nc21 (stereo partly drawn) [Compound 4.106, N6-[(2R)-2-amino-2-phenyl-ethyl]-N4-[(2,2-difluorocyclobutyl)methyl]-1-methyl-pyrazolo[3,4-d]pyrimidine-4,6-diamine]
pIC50 (BCDIN3D [1]): 6.83
pIC50 (BCDIN3D [2]): 6.36

Cn1ncc2c(NCC3(F)CCC3)nc(NC[C@H](N)c3ccccc3)nc21 [Compound 4.107, N6-[(2R)-2-amino-2-phenyl-ethyl]-N4-[(1-fluorocyclobutyl)methyl]-1-methyl-pyrazolo[3,4-d]pyrimidine-4,6-diamine]
pIC50 (BCDIN3D [1]): 6.55
pIC50 (BCDIN3D [2]): 6.21

Cn1ncc2c(NCC3CC(F)C3)nc(NC[C@H](N)c3ccccc3)nc21 (stereo partly drawn) [Compound 4.108, N6-[(2R)-2-amino-2-phenyl-ethyl]-N4-[(3-fluorocyclobutyl)methyl]-1-methyl-pyrazolo[3,4-d]pyrimidine-4,6-diamine]
pIC50 (BCDIN3D [1]): 6.54
pIC50 (BCDIN3D [2]): 6.21

Cn1ncc2c(NC3CC(C(F)(F)F)C3)nc(NC[C@H](N)c3ccccc3)nc21 (stereo partly drawn) [Compound 4.109, N6-[(2R)-2-amino-2-phenyl-ethyl]-1-methyl-N4-[3-(trifluoromethyl)cyclobutyl]pyrazolo[3,4-d]pyrimidine-4,6-diamine]
pIC50 (BCDIN3D [1]): 7.77
pIC50 (BCDIN3D [2]): 7.47

Cn1ncc2c(NCC(C)(C)F)nc(NC[C@H](N)c3ccccc3)nc21 [Compound 4.110, N6-[(2R)-2-amino-2-phenyl-ethyl]-N4-(2-fluoro-2-methyl-propyl)-1-methyl-pyrazolo[3,4-d]pyrimidine-4,6-diamine]
pIC50 (BCDIN3D [1]): 6.26
pIC50 (BCDIN3D [2]): 6.17

Cn1ncc2c(NC3(C)CCCCC3)nc(NC[C@H](N)c3ccccc3)nc21 [Compound 4.111, N6-[(2R)-2-amino-2-phenyl-ethyl]-1-methyl-N4-(1-methylcyclohexyl)pyrazolo[3,4-d]pyrimidine-4,6-diamine]
pIC50 (BCDIN3D [1]): 6.43
pIC50 (BCDIN3D [2]): 6.53

Cn1ncc2c(NCC3CCC3F)nc(NC[C@H](N)c3ccccc3)nc21 (stereo partly drawn) [Compound 4.112, N6-[(2R)-2-amino-2-phenyl-ethyl]-N4-[(2-fluorocyclobutyl)methyl]-1-methyl-pyrazolo[3,4-d]pyrimidine-4,6-diamine]
pIC50 (BCDIN3D [1]): 6.79
pIC50 (BCDIN3D [2]): 6.36

Cn1ncc2c(NC3CCCC3)nc(NC[C@H](N)c3ccccc3)nc21 [Compound 4.113, N6-[(2R)-2-amino-2-phenyl-ethyl]-N4-cyclopentyl-1-methyl-pyrazolo[3,4-d]pyrimidine-4,6-diamine]
pIC50 (BCDIN3D [1]): 7.21
pIC50 (BCDIN3D [2]): 6.83

Cn1ncc2c(NCCC(F)(F)F)nc(NC[C@H](N)c3ccccc3)nc21 [Compound 4.114, N6-[(2R)-2-amino-2-phenyl-ethyl]-1-methyl-N4-(3,3,3-trifluoropropyl)pyrazolo[3,4-d]pyrimidine-4,6-diamine]
pIC50 (BCDIN3D [1]): 6.27
pIC50 (BCDIN3D [2]): 5.81

Cn1ncc2c(NCC3CC3(Cl)Cl)nc(NC[C@H](N)c3ccccc3)nc21 (stereo partly drawn) [Compound 4.115, N6-[(2R)-2-amino-2-phenyl-ethyl]-N4-[(2,2-dichlorocyclopropyl)methyl]-1-methyl-pyrazolo[3,4-d]pyrimidine-4,6-diamine]
pIC50 (BCDIN3D [1]): 7.41
pIC50 (BCDIN3D [2]): 6.57

Cn1ncc2c(NC3(C)CCCC3)nc(NC[C@H](N)c3ccccc3)nc21 [Compound 4.116, N6-[(2R)-2-amino-2-phenyl-ethyl]-1-methyl-N4-(1-methylcyclopentyl)pyrazolo[3,4-d]pyrimidine-4,6-diamine]
pIC50 (BCDIN3D [1]): 6.82
pIC50 (BCDIN3D [2]): 6.91

COC[C@@H](C)Nc1nc(NC[C@H](N)c2ccccc2)nc2c1cnn2C [Compound 4.117, N6-[(2R)-2-amino-2-phenyl-ethyl]-N4-[(1R)-2-methoxy-1-methyl-ethyl]-1-methyl-pyrazolo[3,4-d]pyrimidine-4,6-diamine]
pIC50 (BCDIN3D [1]): 6.11
pIC50 (BCDIN3D [2]): 6.22

Cn1ncc2c(NC(C)(C)C3CCOCC3)nc(NC[C@H](N)c3ccccc3)nc21 [Compound 4.118, N6-[(2R)-2-amino-2-phenyl-ethyl]-1-methyl-N4-(1-methyl-1-tetrahydropyran-4-yl-ethyl)pyrazolo[3,4-d]pyrimidine-4,6-diamine]
pIC50 (BCDIN3D [1]): 5.67
pIC50 (BCDIN3D [2]): 5.60

Cn1ncc2c(NC3CC4(CC4)C3)nc(NC[C@H](N)c3ccccc3)nc21 [Compound 4.119, 1-methyl-N6-[(2R)-2-amino-2-phenyl-ethyl]-N4-spiro[2.3]hexan-5-yl-pyrazolo[3,4-d]pyrimidine-4,6-diamine]
pIC50 (BCDIN3D [1]): 7.62
pIC50 (BCDIN3D [2]): 7.57

Cn1ncc2c(NC3CC3(C)C)nc(NC[C@H](N)c3ccccc3)nc21 (stereo partly drawn) [Compound 4.120, N6-[(2R)-2-amino-2-phenyl-ethyl]-N4-(2,2-dimethylcyclopropyl)-1-methyl-pyrazolo[3,4-d]pyrimidine-4,6-diamine]
pIC50 (BCDIN3D [1]): 6.60
pIC50 (BCDIN3D [2]): 5.84

CC(C)(C)Nc1nc(NC[C@H](N)c2ccccc2)nc2c1cnn2C1CC1 [Compound 4.121, N6-[(2R)-2-amino-2-phenyl-ethyl]-N4-tert-butyl-1-cyclopropyl-pyrazolo[3,4-d]pyrimidine-4,6-diamine]
pIC50 (BCDIN3D [1]): 5.19
pIC50 (BCDIN3D [2]): 5.32

CC(C)[C@@H](C)Nc1nc(NC[C@H](N)c2ccccc2)nc2c1cnn2C [Compound 4.122, N6-[(2R)-2-amino-2-phenylethyl]-1-methyl-N4-[(2R)-3-methylbutan-2-yl]-1H-pyrazolo[3,4-d]pyrimidine-4,6-diamine]
pIC50 (BCDIN3D [1]): 6.92
pIC50 (BCDIN3D [2]): 6.66

CC(C)[C@H](C)Nc1nc(NC[C@H](N)c2ccccc2)nc2c1cnn2C [Compound 4.123, N6-[(2R)-2-amino-2-phenylethyl]-1-methyl-N4-[(2S)-3-methylbutan-2-yl]-1H-pyrazolo[3,4-d]pyrimidine-4,6-diamine]
pIC50 (BCDIN3D [1]): 5.85
pIC50 (BCDIN3D [2]): 5.45

Cn1ncc2c(NC3CC4(CC(O)C4)C3)nc(NC[C@H](N)c3ccccc3)nc21 (stereo partly drawn) [Compound 4.124, 6-[(6-{[(2R)-2-amino-2-phenylethyl]amino}-1-methyl-1H-pyrazolo[3,4-d]pyrimidin-4-yl)amino]spiro[3.3]heptan-2-ol]
pIC50 (BCDIN3D [1]): 6.54
pIC50 (BCDIN3D [2]): 6.24

Cn1ncc2c(NC3CCC(C(F)(F)F)CC3)nc(NC[C@H](N)c3ccccc3)nc21 (stereo partly drawn) [Compound 4.125, N6-[(2R)-2-amino-2-phenylethyl]-1-methyl-N4-[4-(trifluoromethyl)cyclohexyl]-1H-pyrazolo[3,4-d]pyrimidine-4,6-diamine]
pIC50 (BCDIN3D [1]): 6.35
pIC50 (BCDIN3D [2]): 5.64

Cn1ncc2c(N[C@H]3CCC(F)(F)C3)nc(NC[C@H](N)c3ccccc3)nc21 [Compound 4.126, N6-[(2R)-2-amino-2-phenylethyl]-N4-[(1S)-3,3-difluorocyclopentyl]-1-methyl-1H-pyrazolo[3,4-d]pyrimidine-4,6-diamine]
pIC50 (BCDIN3D [1]): 6.35
pIC50 (BCDIN3D [2]): 6.24

Cn1ncc2c(NC3(C)CCOCC3)nc(NC[C@H](N)c3ccccc3)nc21 [Compound 4.127, N6-[(2R)-2-amino-2-phenylethyl]-1-methyl-N4-(4-methyloxan-4-yl)-1H-pyrazolo[3,4-d]pyrimidine-4,6-diamine]
pIC50 (BCDIN3D [1]): 5.17
pIC50 (BCDIN3D [2]): 5.65

Cc1nn(C)c2nc(NC[C@H](N)c3ccccc3)nc(NC(C)(C)C)c12 [Compound 4.128, N6-[(2R)-2-amino-2-phenylethyl]-N4-tert-butyl-1,3-dimethyl-1H-pyrazolo[3,4-d]pyrimidine-4,6-diamine]
pIC50 (BCDIN3D [1]): 6.00
pIC50 (BCDIN3D [2]): 5.89

C[C@@H](Nc1nc(NC[C@H](N)c2ccccc2)nc2c1cnn2C)C1CC1 [Compound 4.129, N6-[(2R)-2-amino-2-phenylethyl]-N4-[(1R)-1-cyclopropylethyl]-1-methyl-1H-pyrazolo[3,4-d]pyrimidine-4,6-diamine]
pIC50 (BCDIN3D [1]): 6.74
pIC50 (BCDIN3D [2]): 6.54
